Test results taken from US5977165A, “Radicicol derivatives” (Kyowa Hakko Kogyo Co., Ltd., priority 1995, dated 1999).
≈ marks a conversion by molar mass, not a printed value. Where two headings read alike, the source gives them in different places.

Experiments:
sarcoma 180 solid tumor = assay: Antitumor test on sarcoma 180 solid tumors; type: in vivo, mouse; conditions: ddY mice, intravenous injection 24 hours after s.c. transplantation, tumor volume at 7 days; dose not given
Method: Antitumor Test on Sarcoma 180 Solid Tumors
Seven days after transplantation of 5×10^6 of sarcoma 180 cells into the abdominal cavity of a ddY mouse, the cells were collected from the ascitic fluid, washed once with sterilized physiological saline and then made into a cell suspension of 5×10^7 cells/ml using sterilized physiological saline. A 0.1 ml portion of the cell suspension was transplanted under the skin of the right side axillary part of ddY mice of 20±2 g in body weight and, after 24 hours of the tumor transplantation, 0.1 to 0.2 ml of each test compound dissolved in physiological saline or polyoxyethylene sorbitan monolaurate-containing physiological saline was administered by intravenous injection to ddY mice of 5 animals per group. The major axis (a) and the minor axis (b) of each tumor 7 days after the transplantation were measured to calculate the tumor volume as an a×b^2 /2 value. Antitumor activity of each test compound was expressed by the ratio (T/C) of the tumor volume (T) of the test compound-administered group to the tumor volume (C) of the control group in which the drug was not administered.

P388 leukemia = assay: Antitumor test on P388 leukemia; type: in vivo, mouse; conditions: CDF1 mice, 1×10^6 P388 cells i.p., compound into abdominal cavity 24 hours after transplantation, 30 days; dose not given
Method: Antitumor Test on P388 Leukemia
The ascitic fluid was collected from the abdominal cavity of P388 ascites-induced mouse (DBA/2) 7 days after the transplantation. The number of P388 cells in the ascitic fluid was counted to prepare a tumor cell suspension of 5×10^6 cells/ml using sterilized physiological saline, and its 0.2 ml portion (containing 1×10^6 cells) was transplanted into the abdominal cavity of CDF1 mice having 20 to 25 g in body weight. […] Effects of the test compounds were judged by the ratio of average survival days in the test compound-administered group to that in the control group (un-treated group) (increased life span, ILS %).

[1] = tested on: Eacillus subtilis No. 10707; assay: Antibacterial activity test (agar dilution method); type: cell-based; conditions: pH 7, Eacillus subtilis No. 10707, read-out: Minimum growth inhibition concentration (MIC), BS
Method: (§1) Antibacterial Activity Test
(§2) the antibacterial activity was measured by an agar dilution method using a medium (pH 7) which has been prepared by dissolving 3 g of Bacto-Tryptone (manufactured by Difco), 3 g of meat extract, 1 g of yeast extract, 1 g of flucose and 16 g of agar in 1 l of water. The antibacterial activity was expressed by minimum growth inhibition concentration (MIC).
BS: Eacillus subtilis No. 10707

T cell growth = T cell growth inhibition test by mixed mouse lymphocyte culture reaction; type: cell-based; conditions: 72 hours, 37° C., [^3 H]-thymidine incorporation, AKR spleen / B10.BR lymph node cells
Method: T Cell Growth Inhibition Test by Mixed Mouse Lymphocyte Culture Reaction
The spleen was excised aseptically from an AKR mouse (Japan SLC Co., Ltd.) and made into a single cell suspension. The suspension was mixed with mitomycin C (MMC) (Kyowa Hakko Kogyo Co., Ltd.) (final concentration, 50 μg/ml) and cultured at 37° C. for 30 minutes. After the culturing, the cells were washed three times with a solution (HBSS) prepared by adding 2.5% fetal calf serum (FCS, Gibco Co.) to Hanks' balanced salt solution (Gibco Co.) and then adjusted to a density of 1×10^7 cells/ml.
A 50 μl portion of B10.BR mouse (Japan SLC Co., Ltd.) lymph node cell suspension (containing 1.5×10^5 cells), 50 μl of AKR mouse spleen cell suspension (containing 5×10^5 cells) and 100 μl of radicicol solution having each test concentration were added to each well of a 96 well microtiter plate and cultured at 37° C. for 72 hours in a CO2 incubator. A 1.0 μCi portion of [^3 H]-thymidine was added 18 hours before the completion of the culturing. After completion of the culturing, the cells were trapped on a filter paper using a cell harvester and dried, and then a toluene scintillator was added thereto to measure the amount of radioactivity of [^3 H]-thymidine incorporated into cells using a scintillation counter (test group). As a control group, the same culturing was carried out without adding the solution of Compound (I) and then the amount of radioactivity of [^3 H]-thymidine incorporated into cells was measured. The T cell growth inhibition ratio was calculated based on the following formula, from which the concentration of each test compound that inhibits 50% of the growth (IC50 was calculated. [formula] (In the above formula, the radioactivity in MMC-treated AKR mouse means the radiation dose of [^3 H]-thymidine incorporated into MMC-treated AKR mouse spleen cells, and the radioactivity in B10.BR mouse means the radiation dose of [^3 H]-thymidine incorporated into B10.BR mouse lymph node cells.)

[2] = tested on: Enterococcus hirae ATCC 10541; type: cell-based; conditions: pH 7
Method: as §1, §2
EH: Enterococcus hirae ATCC 10541

HeLa S3 cells = assay: Cell growth inhibition test on HeLa S3 cells; type: cell-based; conditions: Homo sapiens, read-out: IC50, cell growth inhibition activity upon HeLa S3 cells
Method: Cell Growth Inhibition Test on HeLa S3 Cells
HeLa S3 cells which have been adjusted to 3.0×10^4 cells/ml with MEM medium (manufactured by Nissui Pharmaceutically containing 10% fetal calf serum and 2 mM […] were dispensed in 0.1 ml/well portions into a 96 well microtiter plate. The cells were cultured at 37° C. for 20 hours in a carbon dioxide gas incubator, the culture supernatant was removed and then the plate was washed once with physiological saline. Next, 0.1 ml of the medium containing each test compound was added to each well, and the cells were cultured at 37° C. for 72 hours in the carbon dioxide gas incubator. After removing the culture supernatant, 0.1 ml of the medium containing 0.02% Neutral Red was added to each well, and the cells were stained at 37° C. for 1 hour in the carbon dioxide gas incubator. After removing the culture supernatant, the plate was washed once with physiological saline, the pigment was extracted with 0.001 N hydrochloric acid/30% ethanol and then absorption at 550 nm was measured by a microplate reader. The concentration of each test compound which inhibits 50% of the cell growth (IC50) was calculated by comparing the absorption of un-treated cells with that of the cells treated with known concentration of each sample.

[3] = tested on: Candida albicans ATCC 10231; assay: Antibacterial activity test (agar dilution method); type: cell-based; conditions: ATCC10231, pH 7, Candida albicans ATCC 10231, read-out: Minimum growth inhibition concentration (MIC), CA
Method: as §1, §2
CA: Candida albicans ATCC 10231

[4] = tested on: intracellular tyrosine kinase (v-Src tyrosine kinase, SR-3Y1 cells); assay: Inhibition test of intracellular tyrosine kinase (tyrosine phosphorylation, Western blotting, SR-3Y1 cells); type: cell-based; conditions: Rattus norvegicus, SR3Y1, 37° C., 15 hours, tyrosine-phosphorylated protein, read-out: IC50, inhibitory activity of intracellular tyrosine kinase
Source text: The inhibitory effect of the tyrosine kinase activity can be measured by carrying out Western blotting analysis with an anti-phosphotyrosine antibody using a rat fibroblast cell strain SR-3Y1 transformed with an oncogene v-Src (available from RIKEN Gene Bank) and calculating the amount of intracellular protein in which tyrosine is phosphorylated. Since the tyrosine phosphorylation level of intracellular protein in SR-3Y1 cells for use in this method is increased by v-Src tyrosine kinase, the ability of radicicol derivatives to inhibit v-Src tyrosine kinase can be detected as reduction of the amount of protein in which tyrosine is phosphorylated. Robinson, S. P. et al. [International Journal of Oncology, 2, 253 (1993)] report a method for examination of tyrosine phosphorylation inhibition effect by Western blotting analysis, and Kwon, H. J. et al. [Cancer Research, 52, 6926 (1992)] report examples of experiment using SR-3Y1 cells.
Inhibition Test of Intracellular Tyrosine Kinase
SR-3Y1 cells were cultured at 37° C. for 15 hours in an atmosphere of 5% carbon dioxide, using Dulbecco's modified Eagle's medium (DMEM) containing 10% fetal calf serum (FCS), to which each radicicol derivative to be tested has been added in varied concentration. The thus cultured cells were lysed at 4° C. for 20 minutes in a cooled buffer solution for lysis use (50 mM Tris HCl, pH 7.5, 150 mM NaCl, 1% Triton X-100, 0.1% SDS, 1% sodium deoxycholate, 2 mM EDTA, 1 mM PMSF, 20 μM leupeptin, 0.15 unit/ml aprotinin, 1 mM Na3 VO4) and then centrifuged at 20,000 g for 30 minutes. After measuring protein concentration in the resulting supernatant fluid, samples were adjusted to the same protein quantity per lane to carry out separation of protein by SDS-PAGE. The thus separated protein samples were transferred onto a nitrocellulose membrane to which were subsequently added a mouse […] phosphotyrosine antibody MX-pTYR (Kyowa Medex Co., Ltd.) as a first antibody and a horseradish peroxidase-conjugated […] (BIO-RAD Co.) as a second antibody, thereby effecting their reactions with the protein samples on the membrane. Detection was carried out using ECL reagent (Amersham Co.), and the amount of tyrosine-phosphorylated protein was determined by scanning the density of banks obtained on an X-ray film. The activity of radicicol derivative to inhibit tyrosine phosphorylation can be shown as a concentration (IC50) of each derivative by which the ratio of tyrosine-phosphorylated protein is reduced to half in comparison with a control to which the drug is not added.

[5] = HeLa S3, 72 hours, 37° C., Neutral Red

SMILES | MIC [1] | IC50 (T cell growth) | IC50 (HeLa S3 cells; [5]) | IC50 [4] | further results
C[C@@H]1C[C@@H](OC=O)C(Cl)/C=C\C=C\C(=O)Cc2c(Cl)c(O)cc(O)c2C(=O)O1 (some centres unmarked) [Compound 1] | 83 µg/mL (≈ 193 µM) |  |  |  | T/C (tumor volume ratio) (sarcoma 180 solid tumor): 51%; increased life span (ILS) (P388 leukemia): 38%
C[C@@H]1C[C@@H](O)C(Cl)/C=C\C=C\C(=O)Cc2c(Cl)c(O)cc(O)c2C(=O)O1 (some centres unmarked) [Compound 2] |  |  |  |  | T/C (tumor volume ratio) (sarcoma 180 solid tumor): 50%
C[C@@H]1C[C@@H](O)C(Br)/C=C\C=C\C(=O)Cc2c(Cl)c(O)cc(O)c2C(=O)O1 (some centres unmarked) [Compound 3] | 83 µg/mL (≈ 186 µM) | 300 nM |  |  | increased life span (ILS) (P388 leukemia): 46%
CC1CC(OS(=O)OC2CC(C)OC(=O)c3c(O)cc(O)c(Cl)c3CC(=O)C=CC=CC2Cl)C(Cl)C=CC=CC(=O)Cc2c(Cl)c(O)cc(O)c2C(=O)O1 (centres unmarked) [Compound 4] | 1.3 µg/mL (≈ 1.53 µM) |  | 6000 nM |  | T/C (tumor volume ratio) (sarcoma 180 solid tumor): 39%; increased life span (ILS) (P388 leukemia): 42%; Minimum growth inhibition concentration (MIC), EH [2]: 2.6 µg/mL; MIC [3]: 2.6 µg/mL (≈ 3.06 µM)
CC(=O)Oc1cc(OC(C)=O)c2c(c1Cl)CC(=O)/C=C/C=C\C(Cl)[C@H](OC=O)C[C@@H](C)OC2=O (some centres unmarked) [Compound 6] |  |  | 5000 nM |  | 
CC(=O)Oc1cc(OC(C)=O)c2c(c1Cl)CC(=O)C=CC=CC(Cl)C(OS(=O)OC1CC(C)OC(=O)c3c(OC(C)=O)cc(OC(C)=O)c(Cl)c3CC(=O)C=CC=CC1Cl)CC(C)OC2=O (centres unmarked) [Compound 7] |  |  | 1500 nM |  | 
C[C@@H]1C[C@H]2O[C@@H]2/C=C\C=C\C(=NO)Cc2c(Cl)c(O)cc(O)c2C(=O)O1 [Compound 8] |  | 10 nM | 90 nM | 20 nM | 
CON=C1/C=C/C=C\[C@H]2O[C@@H]2C[C@@H](C)OC(=O)c2c(O)cc(O)c(Cl)c2C1 [Compound 9] | 52 µg/mL (≈ 132 µM) | 20 nM | 50 nM | < 50 nM | MIC [3]: 6.5 µg/mL (≈ 16.5 µM)
C[C@@H]1C[C@H]2O[C@@H]2/C=C\C=C\C(=O)Cc2c(Cl)c(O[Si](C)(C)C(C)(C)C)cc(O[Si](C)(C)C(C)(C)C)c2C(=O)O1 [Compound 10] |  |  | 3200 nM | 150 nM | 
C[C@@H]1C[C@H]2O[C@@H]2/C=C\C=C\C(=NO)Cc2c(Cl)c(O[Si](C)(C)C(C)(C)C)cc(O[Si](C)(C)C(C)(C)C)c2C(=O)O1 [Compound 11] |  |  |  | 20 nM | IC50 (HeLa S3 cells; HeLa S3, 72 h): 120 nM
COCON=C1/C=C/C=C\[C@H]2O[C@@H]2C[C@@H](C)OC(=O)c2c(O)cc(O)c(Cl)c2C1 [Compound 13] |  |  | 20 nM |  | 
C[C@@H]1C[C@H]2O[C@@H]2/C=C\C=C\C(=NOCCCN=[N+]=[N-])Cc2c(Cl)c(O)cc(O)c2C(=O)O1 [Compound 14] |  |  | 50 nM | < 50 nM | 
CCCCCCCCCCCCCCCC(=O)Oc1cc(OC(=O)CCCCCCCCCCCCCCC)c2c(c1Cl)CC(=O)/C=C/C=C\C(Br)[C@H](O)C[C@@H](C)OC2=O (some centres unmarked) [Compound 19] |  | 150 nM |  |  | 
C[C@@H]1C[C@H]2O[C@@H]2/C=C\C=C\C(=O)Cc2c(Cl)c(O)cc(O)c2C(=O)O1 [Radicicol, radicicol] | 83 µg/mL (≈ 228 µM) | 150 nM |  | 180 nM | T/C (tumor volume ratio) (sarcoma 180 solid tumor): 88%; increased life span (ILS) (P388 leukemia): 27%; IC50 (HeLa S3 cells; HeLa S3, 72 h): 6700 nM; MIC [3]: 20 µg/mL (≈ 54.8 µM)
